Laboratory results published in paper PMC5320485, “4-isopropylcyclohexanol has potential analgesic effects through the inhibition of anoctamin 1, TRPV1 and TRPA1 channel activities” (Scientific Reports, 2017).

Assays:
Assay type in all cases: cell-based
[1] = target: T1, mouse anoctamin 1 (mANO1) (Mus musculus, UniProt Q8BHY3); assay: whole-cell patch clamp in HEK293T cells at […]
T1 construct: gene Ano1
T1 sequence (Q8BHY3 1-960): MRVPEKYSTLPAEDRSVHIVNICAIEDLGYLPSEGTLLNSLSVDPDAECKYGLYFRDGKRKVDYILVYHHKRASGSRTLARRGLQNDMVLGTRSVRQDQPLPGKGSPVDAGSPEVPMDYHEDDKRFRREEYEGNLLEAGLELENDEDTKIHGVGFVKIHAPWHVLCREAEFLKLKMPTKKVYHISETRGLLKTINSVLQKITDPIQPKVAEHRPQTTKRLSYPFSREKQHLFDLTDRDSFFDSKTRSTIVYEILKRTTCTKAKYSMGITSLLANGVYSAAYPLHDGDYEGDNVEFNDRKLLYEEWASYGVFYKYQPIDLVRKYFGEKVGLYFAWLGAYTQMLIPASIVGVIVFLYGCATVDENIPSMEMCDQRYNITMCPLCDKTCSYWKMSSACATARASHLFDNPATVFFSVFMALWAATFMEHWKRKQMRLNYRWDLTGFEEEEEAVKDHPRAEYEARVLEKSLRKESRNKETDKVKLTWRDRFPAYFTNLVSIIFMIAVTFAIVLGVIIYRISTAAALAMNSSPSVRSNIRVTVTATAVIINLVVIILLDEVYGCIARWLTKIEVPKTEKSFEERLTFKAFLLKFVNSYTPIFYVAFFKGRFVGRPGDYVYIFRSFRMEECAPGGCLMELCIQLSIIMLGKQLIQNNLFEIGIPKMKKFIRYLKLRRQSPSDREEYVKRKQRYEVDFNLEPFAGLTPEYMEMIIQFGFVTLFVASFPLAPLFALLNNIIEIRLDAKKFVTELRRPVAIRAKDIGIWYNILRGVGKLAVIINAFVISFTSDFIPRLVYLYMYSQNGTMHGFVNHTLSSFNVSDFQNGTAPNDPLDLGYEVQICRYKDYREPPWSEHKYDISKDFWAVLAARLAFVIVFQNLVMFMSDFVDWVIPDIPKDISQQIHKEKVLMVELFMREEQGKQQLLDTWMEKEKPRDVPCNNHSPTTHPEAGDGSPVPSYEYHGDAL

[2] = target: human TRPA1 (hTRPA1) (Homo sapiens, UniProt O75762); assay: whole-cell patch clamp in HEK293T cells; inhibits AITC currents at […] and weakly activates alone
[3] = target: T1, mouse anoctamin 1 (mANO1); assay: whole-cell patch clamp in HEK293T cells, dose-response at −[…] mV

Sequence of human TRPA1 (hTRPA1) (O75762 whole entry): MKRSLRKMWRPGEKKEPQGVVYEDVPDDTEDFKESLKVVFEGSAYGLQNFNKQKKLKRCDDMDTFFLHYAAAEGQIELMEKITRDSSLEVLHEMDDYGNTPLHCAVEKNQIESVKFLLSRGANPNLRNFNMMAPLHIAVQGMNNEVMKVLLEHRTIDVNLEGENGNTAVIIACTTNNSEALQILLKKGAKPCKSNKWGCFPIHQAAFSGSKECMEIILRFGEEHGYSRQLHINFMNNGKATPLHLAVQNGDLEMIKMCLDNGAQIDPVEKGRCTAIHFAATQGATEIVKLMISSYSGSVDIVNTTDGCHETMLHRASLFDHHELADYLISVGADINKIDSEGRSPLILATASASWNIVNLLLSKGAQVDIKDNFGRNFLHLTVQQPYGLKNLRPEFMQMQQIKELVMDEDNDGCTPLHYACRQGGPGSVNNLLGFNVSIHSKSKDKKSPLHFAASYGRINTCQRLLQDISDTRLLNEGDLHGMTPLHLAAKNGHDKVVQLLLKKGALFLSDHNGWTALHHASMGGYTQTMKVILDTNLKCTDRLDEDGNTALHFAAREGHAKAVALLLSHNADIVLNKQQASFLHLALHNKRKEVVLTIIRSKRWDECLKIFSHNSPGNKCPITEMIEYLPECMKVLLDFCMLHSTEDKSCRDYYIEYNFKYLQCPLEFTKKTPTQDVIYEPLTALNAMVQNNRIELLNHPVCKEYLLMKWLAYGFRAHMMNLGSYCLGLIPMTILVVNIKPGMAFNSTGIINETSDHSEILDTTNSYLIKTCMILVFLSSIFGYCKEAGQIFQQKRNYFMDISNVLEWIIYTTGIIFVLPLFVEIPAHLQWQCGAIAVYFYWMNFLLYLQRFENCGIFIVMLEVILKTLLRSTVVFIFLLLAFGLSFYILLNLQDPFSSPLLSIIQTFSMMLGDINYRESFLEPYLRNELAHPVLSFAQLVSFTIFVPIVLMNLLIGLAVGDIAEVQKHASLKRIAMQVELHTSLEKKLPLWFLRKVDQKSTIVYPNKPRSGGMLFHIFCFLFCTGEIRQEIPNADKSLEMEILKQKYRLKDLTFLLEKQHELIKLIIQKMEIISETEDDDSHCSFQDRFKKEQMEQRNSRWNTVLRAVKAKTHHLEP

| Structure (SMILES) | whole-cell patch clamp in HEK293T cells at 3 mM [1] | whole-cell patch clamp in HEK293T cells; inhibits AITC currents at 3 mM and weak [2] | IC50 [3] [µM] |
| --- | --- | --- | --- |
| CC(C)C1CCCCC1 [iPr-CyH, isopropylcyclohexane] | isopropylcyclohexane (iPr-CyH) strongly inhibited mANO1 currents to a similar degree as that seen for d-menthol | – | – |
| CC(C)C1CCC(O)CC1 (stereo not shown) [4-iPr-CyH-OH, 4-isopropylcyclohexanol] | – | 4-iPr-CyH-OH did not activate hTRPV1 (Fig. 5d), yet did slightly but significantly activate hTRPA1 | 1090 |
| CC(C)[C@@H]1CC[C@@H](C)C[C@H]1O [l-menthol] | – | – | 441 |
